Assay results as given in PubChem BioAssay AID330 (DTP/NCI, 2004).
Where “and” joins values, the source holds several entries; their conditions need not be identical. Equal entries are not always repeated. Inconclusive results and toxic doses are left out. Numbered stars: 1 amine (or outer) side, 2 acyl side, 3 side chain; on linkers, the order of the positions; unused ones are H or OH. Bridge positions count the residues as written; N and C are the ends. Square brackets hold non-standard residues; d marks the D form. Peptide text beside a SMILES is read from it. I, II: the chains in the order shown. * marks the point of attachment. ξ: configuration not given here. Quinaldoyl(3-OH,6-OMe) = COc1ccc2nc(C(=O)*)c(O)cc2c1; X12 = CCC(=O)OC1CC=NN([*:1])C1C(=O)[*:2]; X8 = CC(=O)OC1CC=NN([*:1])C1C(=O)[*:2]; ξNMeVal(3-OH) = CNC(C(=O)O)C(C)(C)O; Cbz = O=C(OCc1ccccc1)*; Sar = CNCC(=O)O

Tested on: P388 leukemia ip, CD2F1 mice, survival T/C
Test: NCI In Vivo Anticancer Drug Screen. Data for tumor model P388 Leukemia (intraperitoneal) in CD2F1 (CDF1) mice
Details: endpoint: median survival time, higher = longer survival
Outline: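 Mice carrying the transplanted tumor received test compound or vehicle. Survival was recorded in each group, and the value is the treated-group measurement divided by that of the vehicle-treated control group.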

[1] = dose: 50.0 mg/kg/injection, schedule: Q01DX005 (ip), vehicle: Klucel (hydroxypropylcellulose) (HPC)
[2] = dose: 100.0 mg/kg/injection, schedule: Q01DX005 (ip), vehicle: Klucel (hydroxypropylcellulose) (HPC)
[3] = dose: 200.0 mg/kg/injection, schedule: Q01DX005 (ip), vehicle: Klucel (hydroxypropylcellulose) (HPC)
[4] = dose: 50.0 mg/kg/injection, schedule: Q01DX005 (ip), vehicle: saline with Tween-80
[5] = dose: 100.0 mg/kg/injection, schedule: Q01DX005 (ip), vehicle: saline with Tween-80
[6] = dose: 200.0 mg/kg/injection, schedule: Q01DX005 (ip), vehicle: saline with Tween-80
[7] = dose: 60.0 mg/kg/injection, schedule: Q01DX005 (ip), vehicle: saline with Tween-80
[8] = dose: 120.0 mg/kg/injection, schedule: Q01DX005 (ip), vehicle: saline with Tween-80
[9] = dose: 240.0 mg/kg/injection, schedule: Q01DX005 (ip), vehicle: saline with Tween-80
[10] = dose: 25.0 mg/kg/injection, schedule: Q01DX005 (ip), vehicle: saline with Tween-80
[11] = dose: 50.0 mg/kg/injection, schedule: Q01DX009 (ip), vehicle: Klucel (hydroxypropylcellulose) (HPC)

CCC1COc2nc(=O)c(C=NCCCN(C)C)c(N)n21 (centres undefined)
T/C (dose: 60.0 mg/kg/injection, schedule: Q01DX005 (ip), vehicle: saline): 100 % of control
T/C (dose: 120.0 mg/kg/injection, schedule: Q01DX005 (ip), vehicle: saline): 105 % of control
T/C (dose: 240.0 mg/kg/injection, schedule: Q01DX005 (ip), vehicle: saline): 99 % of control

CC(C)CC(NC(=O)CCNC(=O)OCc1ccccc1)C(=O)O (centres undefined)
T/C [1]: 100 % of control
T/C [2]: 101 % of control
T/C [3]: 91 % of control

Cc1ccc(OCC(O)CN2CCN(c3ccc(Cl)cc3)CC2)cc1 (centres undefined)
T/C (dose: 100.0 mg/kg/injection, schedule: Q01DX009 (ip), vehicle: saline sonified): 100 % of control
T/C (dose: 200.0 mg/kg/injection, schedule: Q01DX009 (ip), vehicle: saline sonified): 95 % of control
T/C (dose: 400.0 mg/kg/injection, schedule: Q01DX009 (ip), vehicle: saline sonified): 90 % of control

CC1(C)CN(C(C)(C)C)CC(C)(C)C(O)C1=O (centres undefined)
T/C (dose: 100.0 mg/kg/injection, schedule: Q01DX001 (ip), vehicle: saline with Tween-80): 100 % of control
T/C (dose: 200.0 mg/kg/injection, schedule: Q01DX001 (ip), vehicle: saline with Tween-80): 118 % of control
T/C (dose: 400.0 mg/kg/injection, schedule: Q01DX001 (ip), vehicle: saline with Tween-80): 104 % of control

CSCCC(NC(=O)C1CCCN1C(=O)OCc1ccccc1)C(=O)O (stereo not drawn) (Cbz-Pro-Met-OH; configuration not given here)
T/C [4]: 104 % of control
T/C [5]: 106 % of control
T/C [6]: 105 % of control

COC(=O)C1C(=O)C2OC1C1OC(C)(C)OC21 (centres undefined)
T/C [1]: 94 % of control
T/C [2]: 103 % of control
T/C [3]: 104 % of control

CCOC(=O)CC12C=CC(CC(=O)OCC)(CC1)n1c(=O)n(C)c(=O)n12
T/C (dose: 100.0 mg/kg/injection, schedule: Q04DX002 (ip), vehicle: saline with Tween-80): 100 % of control
T/C (dose: 200.0 mg/kg/injection, schedule: Q04DX002 (ip), vehicle: saline with Tween-80): 100 % of control
T/C (dose: 400.0 mg/kg/injection, schedule: Q04DX002 (ip), vehicle: saline with Tween-80): 101 % of control

Cc1ccc2c(c1)NC(=O)CC(c1ccccc1)=N2
T/C [7]: 97 % of control
T/C [8]: 96 % of control
T/C [9]: 96 % of control

O=C(Nc1ccccc1)Sc1ccc(Cl)cc1
T/C [10]: 115 % of control
T/C [4]: 121 % of control
T/C [5]: 115 % of control and 123 % of control
T/C [6]: 124 % of control

CCC(=O)OC1CC=NN2C(=O)C(NC(=O)c3nc4ccc(OC)cc4cc3O)COC(=O)C(C(C)(C)O)N(C)C(=O)CN(C)C(=O)CNC(=O)C3C(OC(C)=O)CC=NN3C(=O)C(NC(=O)c3nc4ccc(OC)cc4cc3O)COC(=O)C(C(C)(C)O)N(C)C(=O)CN(C)C(=O)CNC(=O)C12 (centres undefined) (I: {Quinaldoyl(3-OH,6-OMe)}-S[X12]G[Sar][ξNMeVal(3-OH)] / II: {Quinaldoyl(3-OH,6-OMe)}-S[X8]G[Sar][ξNMeVal(3-OH)]; ester I:1-II:C, I:C-II:1; configuration not given here)
T/C (dose: 20.0 micrograms/kg/injection, schedule: Q01DX005 (ip), vehicle: DMSO): 106 % of control
T/C (dose: 40.0 micrograms/kg/injection, schedule: Q01DX005 (ip), vehicle: DMSO): 153 % of control
T/C (dose: 80.0 micrograms/kg/injection, schedule: Q01DX005 (ip), vehicle: DMSO): 174 % of control
T/C (dose: 160.0 micrograms/kg/injection, schedule: Q01DX005 (ip), vehicle: DMSO): 155 % of control

COc1cc2c(cc1OC)C1Cc3ccc(OC)c(OC)c3CN1CC2 (centres undefined)
T/C (dose: 50.0 mg/kg/injection, schedule: Q01DX009 (ip), vehicle: saline): 104 % of control
T/C (dose: 60.0 mg/kg/injection, schedule: Q01DX005 (ip), vehicle: Klucel (hydroxypropylcellulose) (HPC)): 100 % of control
T/C (dose: 100.0 mg/kg/injection, schedule: Q01DX009 (ip), vehicle: saline): 101 % of control
T/C (dose: 120.0 mg/kg/injection, schedule: Q01DX005 (ip), vehicle: Klucel (hydroxypropylcellulose) (HPC)): 109 % of control
T/C (dose: 200.0 mg/kg/injection, schedule: Q01DX009 (ip), vehicle: saline): 99 % of control
T/C (dose: 240.0 mg/kg/injection, schedule: Q01DX005 (ip), vehicle: Klucel (hydroxypropylcellulose) (HPC)): 108 % of control

c1ccc(OCc2cn[nH]n2)cc1
T/C [7]: 100 % of control
T/C [8]: 103 % of control
T/C [9]: 100 % of control

Nc1ccc(/C=C/c2cccc3cccnc23)cc1
T/C (dose: 12.5 mg/kg/injection, schedule: Q01DX009 (ip), vehicle: saline with Tween-80): 96 % of control
T/C (dose: 25.0 mg/kg/injection, schedule: Q01DX009 (ip), vehicle: saline with Tween-80): 96 % of control
T/C (dose: 50.0 mg/kg/injection, schedule: Q01DX009 (ip), vehicle: saline with Tween-80): 93 % of control

CCCCCCCCCCCC(O)CCCC(O)CC(O)CC(O)CC1CC=CC(=O)O1 (centres undefined)
T/C (dose: 12.5 mg/kg/injection, schedule: Q01DX009 (ip), vehicle: Klucel (hydroxypropylcellulose) (HPC)): 106 % of control
T/C (dose: 25.0 mg/kg/injection, schedule: Q01DX009 (ip), vehicle: Klucel (hydroxypropylcellulose) (HPC)): 103 % of control
T/C [11]: 112 % of control

COC(=O)c1c2c(cc3nc4ccccc4nc13)OCO2
T/C [7]: 96 % of control
T/C [8]: 97 % of control
T/C [9]: 90 % of control

COC(=O)[C@@]12OC[C@]34[C@H]([C@@H](O)[C@@H]1O)[C@@]1(C)C=C(OC5OC(CO)C(O)C(O)C5O)C(=O)[C@@H](C)[C@@H]1C[C@H]3OC(=O)[C@H](OC(=O)/C=C(\C)C(C)C)[C@@H]24 (some centres undefined)
T/C (dose: 2.0 mg/kg/injection, schedule: Q01DX005 (ip), vehicle: saline + alcohol): 100 % of control
T/C (dose: 4.0 mg/kg/injection, schedule: Q01DX005 (ip), vehicle: saline + alcohol): 94 % of control
T/C (dose: 8.0 mg/kg/injection, schedule: Q01DX005 (ip), vehicle: saline + alcohol): 94 % of control
T/C (dose: 16.0 mg/kg/injection, schedule: Q01DX005 (ip), vehicle: saline + alcohol): 106 % of control
T/C (dose: 32.0 mg/kg/injection, schedule: Q01DX005 (ip), vehicle: saline + alcohol): 111 % of control
T/C (dose: 64.0 mg/kg/injection, schedule: Q01DX005 (ip), vehicle: saline + alcohol): 108 % of control

COc1ccc(C(c2cc3c(cc2O)OCO3)N2CCOCC2)cc1 (centres undefined)
T/C [7]: 118 % of control
T/C [8]: 109 % of control and 119 % of control
T/C [9]: 120 % of control

CC1CCC(C(C)(C)c2ccccc2)CC1OC(=O)/C=C/CC(C)(C)CC=C1C2CCC1N(C(=O)OCC(Cl)(Cl)Cl)N2C(=O)OCC(Cl)(Cl)Cl (centres undefined)
T/C (dose: 25.0 mg/kg/injection, schedule: Q01DX005 (ip), vehicle: Klucel (hydroxypropylcellulose) (HPC)): 89 % of control
T/C [1]: 89 % of control

O=C1C(=O)c2cccc([N+](=O)[O-])c2-c2ccccc21
T/C (dose: 12.5 mg/kg/injection, schedule: Q01DX005 (ip), vehicle: saline with Tween-80): 104 % of control and 106 % of control
T/C [10]: 101 % of control and 115 % of control
T/C [4]: 107 % of control and 118 % of control
T/C [5]: 104 % of control (2×) and 95 % of control

COc1ccn(C2CCCO2)c(=O)n1 (centres undefined)
T/C (dose: 50.0 mg/kg/injection, schedule: Q01DX005 (ip), vehicle: saline): 95 % of control
T/C (dose: 100.0 mg/kg/injection, schedule: Q01DX005 (ip), vehicle: saline): 100 % of control
T/C (dose: 200.0 mg/kg/injection, schedule: Q01DX005 (ip), vehicle: saline): 88 % of control

CCOC(=O)c1ccc(NC(c2ccc(N(CCCl)CCCl)cc2)P(=O)(Oc2ccccc2)Oc2ccccc2)cc1 (centres undefined)
T/C [11]: 93 % of control
T/C (dose: 100.0 mg/kg/injection, schedule: Q01DX009 (ip), vehicle: Klucel (hydroxypropylcellulose) (HPC)): 96 % of control
T/C (dose: 200.0 mg/kg/injection, schedule: Q01DX009 (ip), vehicle: Klucel (hydroxypropylcellulose) (HPC)): 95 % of control

ClCCN(CCCl)c1ccc(/C=N/Nc2ccc3ccccc3n2)cc1
T/C (dose: 100.0 mg/kg/injection, schedule: Q04DX003 (ip), vehicle: saline with Tween-80): 110 % of control
T/C (dose: 200.0 mg/kg/injection, schedule: Q04DX003 (ip), vehicle: saline with Tween-80): 109 % of control
T/C (dose: 400.0 mg/kg/injection, schedule: Q04DX003 (ip), vehicle: saline with Tween-80): 106 % of control

O=c1[nH]/c(=C/c2ccc(CO)o2)c(=O)[nH]/c1=C\c1ccc(CO)o1
T/C (dose: 12.5 mg/kg/injection, schedule: Q01DX009 (ip), vehicle: distilled water + Tween-80): 90 % of control
T/C (dose: 25.0 mg/kg/injection, schedule: Q01DX009 (ip), vehicle: distilled water + Tween-80): 89 % of control
T/C (dose: 50.0 mg/kg/injection, schedule: Q01DX009 (ip), vehicle: distilled water + Tween-80): 87 % of control
T/C (dose: 100.0 mg/kg/injection, schedule: Q01DX009 (ip), vehicle: distilled water + Tween-80): 87 % of control
T/C (dose: 200.0 mg/kg/injection, schedule: Q01DX009 (ip), vehicle: distilled water + Tween-80): 90 % of control
